Measured values taken from patent publication US12077503B2, “Substituted cyclic amides and their use as herbicides” (FMC CORPORATION, priority 2015, dated 2024).

Tests used:
Experiment in all cases: Test C preemergence
Type in all cases: in vivo
[1] = tested on: Galium (catchweed bedstraw, Galium aparine); conditions: for Plant response rating, Galium: scale 0 to 100, 0 no effect, 100 complete control
How it was run: (§1)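 After treatment with surfactant-containing formulations, either preemergence to seeds in loam-sand soil or postemergence to potted seedlings at 2–18 cm, plants were kept 13–15 d in a greenhouse. Observers then compared them with controls and assigned ratings, 0 signifying no effect and 100 complete control.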

[2] = tested on: barnyardgrass (Echinochloa crus-galli); conditions: for Plant response rating, Barnyardgrass: scale 0 to 100, 0 no effect, 100 complete control
How it was run: as §1

[3] = tested on: blackgrass (Alopecurus myosuroides); conditions: for Plant response rating, Blackgrass: scale 0 to 100, 0 no effect, 100 complete control
How it was run: as §1

corn (Zea mays) = conditions: for Plant response rating, Corn: scale 0 to 100, 0 no effect, 100 complete control
How it was run: as §1

[4] = tested on: crabgrass, large (large crabgrass, Digitaria sanguinalis); conditions: for Plant response rating, Crabgrass, Large: scale 0 to 100, 0 no effect, 100 complete control
How it was run: as §1

[5] = tested on: foxtail, giant (giant foxtail, Setaria faberii); conditions: for Plant response rating, Foxtail, Giant: scale 0 to 100, 0 no effect, 100 complete control
How it was run: as §1

[6] = tested on: johnsongrass (Sorghum halepense); conditions: for Plant response rating, Johnsongrass: scale 0 to 100, 0 no effect, 100 complete control
How it was run: as §1

[7] = tested on: lambsquarters (Chenopodium album); conditions: for Plant response rating, Lambsquarters: scale 0 to 100, 0 no effect, 100 complete control
How it was run: as §1

[8] = tested on: morningglory (Ipomoea coccinea); conditions: for Plant response rating, Morningglory: scale 0 to 100, 0 no effect, 100 complete control
How it was run: as §1

[9] = tested on: oilseed rape (Brassica napus); conditions: for Plant response rating, Oilseed Rape: scale 0 to 100, 0 no effect, 100 complete control
How it was run: as §1

[10] = tested on: pigweed (Amaranthus retroflexus); conditions: for Plant response rating, Pigweed: scale 0 to 100, 0 no effect, 100 complete control
How it was run: as §1

[11] = tested on: ragweed (common ragweed, Ambrosia elatior); conditions: for Plant response rating, Ragweed: scale 0 to 100, 0 no effect, 100 complete control
How it was run: as §1

[12] = tested on: ryegrass, Italian (Italian ryegrass, Lolium multiflorum); conditions: for Plant response rating, Ryegrass, Italian: scale 0 to 100, 0 no effect, 100 complete control
How it was run: as §1

soybean (Glycine max) = conditions: for Plant response rating, Soybean: scale 0 to 100, 0 no effect, 100 complete control
How it was run: as §1

[13] = tested on: velvetleaf (Abutilon theophrasti); conditions: for Plant response rating, Velvetleaf: scale 0 to 100, 0 no effect, 100 complete control
How it was run: as §1

[14] = tested on: waterhemp (common waterhemp, Amaranthus rudis); conditions: for Plant response rating, Waterhemp: scale 0 to 100, 0 no effect, 100 complete control
How it was run: as §1

[15] = tested on: wheat (winter wheat, Triticum aestivum); conditions: for Plant response rating, Wheat: scale 0 to 100, 0 no effect, 100 complete control
How it was run: as §1

[16] = 31 g ai/ha, 0 is no effect, 100 is complete control

O=C1NCC(c2ccc3c(c2)OC(F)(F)O3)C1C(=O)Nc1cccc(F)c1F (centres unmarked) [Compound 635]
Plant response rating (scale of 0 to 100), Galium [1, 16]: 5
Plant response rating, Galium ([1]; 62 g ai/ha): 5
Plant response rating, Galium ([1]; 125 g ai/ha): 80
Plant response rating, Galium ([1]; 250 g ai/ha): 80
Plant response rating (scale of 0 to 100), Barnyardgrass [2, 16]: 85
Plant response rating, Barnyardgrass ([2]; 62 g ai/ha): 90
Plant response rating, Barnyardgrass ([2]; 125 g ai/ha): 95
Plant response rating, Barnyardgrass ([2]; 250 g ai/ha): 95
Plant response rating (scale of 0 to 100), Blackgrass [3, 16]: 30
Plant response rating, Blackgrass ([3]; 62 g ai/ha): 60
Plant response rating, Blackgrass ([3]; 125 g ai/ha): 70
Plant response rating, Blackgrass ([3]; 250 g ai/ha): 90
Plant response rating (scale of 0 to 100), Corn (corn (Zea mays); [16]): 0
Plant response rating, Corn (corn (Zea mays); 62 g ai/ha): 70
Plant response rating, Corn (corn (Zea mays); 125 g ai/ha): 75
Plant response rating, Corn (corn (Zea mays); 250 g ai/ha): 85
Plant response rating (scale of 0 to 100), Crabgrass, Large [4, 16]: 90
Plant response rating, Crabgrass, Large ([4]; 62 g ai/ha): 95
Plant response rating, Crabgrass, Large ([4]; 125 g ai/ha): 95
Plant response rating, Crabgrass, Large ([4]; 250 g ai/ha): 98
Plant response rating (scale of 0 to 100), Foxtail, Giant [5, 16]: 85
Plant response rating, Foxtail, Giant ([5]; 62 g ai/ha): 90
Plant response rating, Foxtail, Giant ([5]; 125 g ai/ha): 95
Plant response rating, Foxtail, Giant ([5]; 250 g ai/ha): 95
Plant response rating (scale of 0 to 100), Johnsongrass [6, 16]: 25
Plant response rating, Johnsongrass ([6]; 62 g ai/ha): 75
Plant response rating, Johnsongrass ([6]; 125 g ai/ha): 65
Plant response rating, Johnsongrass ([6]; 250 g ai/ha): 85
Plant response rating (scale of 0 to 100), Lambsquarters [7, 16]: 40
Plant response rating, Lambsquarters ([7]; 62 g ai/ha): 40
Plant response rating, Lambsquarters ([7]; 125 g ai/ha): 80
Plant response rating, Lambsquarters ([7]; 250 g ai/ha): 85
Plant response rating (scale of 0 to 100), Morningglory [8, 16]: 0
Plant response rating, Morningglory ([8]; 62 g ai/ha): 25
Plant response rating, Morningglory ([8]; 125 g ai/ha): 30
Plant response rating, Morningglory ([8]; 250 g ai/ha): 50
Plant response rating (scale of 0 to 100), Oilseed Rape [9, 16]: 25
Plant response rating, Oilseed Rape ([9]; 62 g ai/ha): 50
Plant response rating, Oilseed Rape ([9]; 125 g ai/ha): 90
Plant response rating, Oilseed Rape ([9]; 250 g ai/ha): 90
Plant response rating (scale of 0 to 100), Pigweed [10, 16]: 70
Plant response rating, Pigweed ([10]; 62 g ai/ha): 70
Plant response rating, Pigweed ([10]; 125 g ai/ha): 85
Plant response rating, Pigweed ([10]; 250 g ai/ha): 85
Plant response rating (scale of 0 to 100), Ragweed [11, 16]: 40
Plant response rating, Ragweed ([11]; 62 g ai/ha): 70
Plant response rating, Ragweed ([11]; 125 g ai/ha): 80
Plant response rating, Ragweed ([11]; 250 g ai/ha): 80
Plant response rating (scale of 0 to 100), Ryegrass, Italian [12, 16]: 0
Plant response rating, Ryegrass, Italian ([12]; 62 g ai/ha): 5
Plant response rating, Ryegrass, Italian ([12]; 125 g ai/ha): 20
Plant response rating, Ryegrass, Italian ([12]; 250 g ai/ha): 40
Plant response rating (scale of 0 to 100), Soybean (soybean (Glycine max); [16]): 20
Plant response rating, Soybean (soybean (Glycine max); 62 g ai/ha): 85
Plant response rating, Soybean (soybean (Glycine max); 125 g ai/ha): 5
Plant response rating, Soybean (soybean (Glycine max); 250 g ai/ha): 60
Plant response rating (scale of 0 to 100), Velvetleaf [13, 16]: 0
Plant response rating, Velvetleaf ([13]; 62 g ai/ha): 10
Plant response rating, Velvetleaf ([13]; 125 g ai/ha): 15
Plant response rating, Velvetleaf ([13]; 250 g ai/ha): 40
Plant response rating (scale of 0 to 100), Waterhemp [14, 16]: 75
Plant response rating, Waterhemp ([14]; 62 g ai/ha): 80
Plant response rating, Waterhemp ([14]; 125 g ai/ha): 85
Plant response rating, Waterhemp ([14]; 250 g ai/ha): 85
Plant response rating (scale of 0 to 100), Wheat [15, 16]: 0
Plant response rating, Wheat ([15]; 62 g ai/ha): 0
Plant response rating, Wheat ([15]; 125 g ai/ha): 10
Plant response rating, Wheat ([15]; 250 g ai/ha): 65
